Among the test systems are DMS 273 small cell lung; HOP-18 NSCLC; LXFL 529 NSCLC; SNB-78 CNS; BT-549 breast; MDA-MB-231 breast; MDA-N.
Holding throughout (assay): inhibition of tumour cell growth, NCI panel, 48 h

SMILES strings stand for the structures. Values joined by “and” are separate entries in the source; they are usually repeats but may differ in a detail not shown here. Identical values can stand only once.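 Tested at 5 concentrations; 48 h exposure; 96-well plates; endpoints linearly interpolated, else capped at highest concentration. Abbreviation: GI50, concentration required for 50% inhibition of growth. TGI: total growth inhibition.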

With `CC1=C2C3OC(=O)C(C)C3C(O)C[C@@]2(C)C(=O)CC1` (stereo partly drawn), the TGI in the assay with DMS 273 small cell lung, in the assay on HOP-18 NSCLC, in the assay with LXFL 529 NSCLC and in the assay with SNB-78 CNS was > 100 µM throughout.
Turning to `CC1OC(=O)N2CCC=CC12` (stereo not drawn), the TGI in the assay with DMS 273 small cell lung, in the assay with HOP-18 NSCLC, with LXFL 529 NSCLC and with SNB-78 CNS was > 100 µM in each case.
In the case of `COC(=O)C(C)Oc1ccc(O)cc1` (stereo not drawn), the TGI in the assay on DMS 273 small cell lung, with HOP-18 NSCLC, in the assay on LXFL 529 NSCLC and in the assay with SNB-78 CNS was > 100 µM throughout.
With `C#C[C@@H](CCCC)OC(=O)N[C@H](C)c1ccccc1`, the TGI in the assay on DMS 273 small cell lung, in the assay on HOP-18 NSCLC, in the assay on LXFL 529 NSCLC and with SNB-78 CNS was > 100 µM each time.
On to `COC(=O)C#CC(N)=O`, for which the TGI in the assay on DMS 273 small cell lung was > 100 µM; in the assay with HOP-18 NSCLC it was > 81.1 µM; in the assay with LXFL 529 NSCLC, > 100 µM; in the assay on SNB-78 CNS, > 100 µM.
Turning to `CN(C)C(=S)/N=c1\ss/c(=N\S(=O)(=O)c2ccccc2)n1C`, the TGI in the assay with DMS 273 small cell lung, in the assay on HOP-18 NSCLC, with LXFL 529 NSCLC and with SNB-78 CNS was > 100 µM throughout.
For `COc1cc([C@@H]2c3cc4c(cc3[C@@H](NCc3cccc(F)c3)C3COC(=O)[C@@H]32)OCO4)cc(OC)c1O` (stereo partly drawn), the TGI is 14.3 µM with DMS 273 small cell lung, > 65 µM with HOP-18 NSCLC, > 65 µM in the assay on LXFL 529 NSCLC and 57.7 µM with SNB-78 CNS.
For the molecule `NC(=O)c1nc(-c2ccc(Cl)c(Cl)c2)nc2ccccc12`, the TGI with DMS 273 small cell lung is > 24.9 µM; in the assay on HOP-18 NSCLC, > 100 µM; in the assay with LXFL 529 NSCLC, > 100 µM; with SNB-78 CNS it was > 100 µM.
Regarding `CCCCCC/C(CC(=O)CCC(=O)NCCc1ccccc1)=N\Nc1ccc([N+](=O)[O-])cc1[N+](=O)[O-]`, the TGI in the assay with DMS 273 small cell lung, with HOP-18 NSCLC, with LXFL 529 NSCLC and in the assay with SNB-78 CNS was > 100 µM in each case.
As to `COC(=O)C(/C(=N\O)C(=O)Nc1ccc(Br)cc1)c1nc2ccccc2[nH]c1=O` (stereo not drawn), the TGI in the assay on DMS 273 small cell lung was > 100 µM; in the assay on HOP-18 NSCLC, > 100 µM; with LXFL 529 NSCLC it was 80.5 µM; in the assay on SNB-78 CNS it was > 100 µM.
As for `O=C(CCc1cc(-c2ccc(F)cc2)n[nH]1)N(Cc1ccccc1)Cc1ccccc1`, the TGI in the assay on DMS 273 small cell lung, in the assay with HOP-18 NSCLC, in the assay on LXFL 529 NSCLC and in the assay on SNB-78 CNS was > 100 µM each time.
Regarding `COC(=O)Nc1nc2ccc(C(=O)c3cccs3)cc2[nH]1`, the TGI in the assay with BT-549 breast is 4.33 µM; with DMS 273 small cell lung, > 100 µM; with HOP-18 NSCLC, > 100 µM; in the assay on LXFL 529 NSCLC it was 18.6 µM; with MDA-MB-231 breast, 79.2 µM and > 100 µM; with MDA-N, 2.57 µM. Further, the TGI in the assay on SNB-78 CNS was > 63.1 µM. Moreover, the GI50 with MDA-MB-231 breast is 0.595 µM.
Regarding `Cc1nc(-n2nc(-c3ccccc3)cc2-c2ccccc2)sc1C(=O)CC(=O)C(=O)Nc1ccc(O)cc1`, the TGI in the assay with DMS 273 small cell lung, in the assay with HOP-18 NSCLC, in the assay with LXFL 529 NSCLC and with SNB-78 CNS was > 100 µM each time.
Regarding `COc1ccc(/C=C2/CSC/C(=C/c3ccc(OC)c(OC)c3)C2=O)cc1OC`, the TGI was 3.09 µM with DMS 273 small cell lung; 17.3 µM with HOP-18 NSCLC; 10.8 µM with LXFL 529 NSCLC; 8.18 µM in the assay on MDA-MB-231 breast; 8.89 µM with MDA-N; > 100 µM with SNB-78 CNS.
Consider `CCN1CCC(O)(/C=C/c2ccccc2)C(C(=O)/C=C/c2ccccc2)C1` (stereo not drawn), for which the TGI in the assay on DMS 273 small cell lung was found to be 3.27 µM; in the assay on HOP-18 NSCLC it was 18.1 µM; in the assay on LXFL 529 NSCLC it was 3.56 µM; in the assay with SNB-78 CNS it was 11.5 µM.
Taken in the same sequence, the figures for `N#CC(C#N)C(c1ccccc1)c1ccccc1` were > 100 µM, > 100 µM, > 100 µM and > 100 µM.
Regarding `CCOC(=O)CC(C)C1(C=O)CCCCC1=O` (stereo not drawn), the TGI in the assay on DMS 273 small cell lung, in the assay with HOP-18 NSCLC, with LXFL 529 NSCLC and with SNB-78 CNS was > 100 µM each time.
As for `CC/C(C)=C1\CCC(CN(C)C)C1=O` (stereo not drawn), the TGI in the assay on DMS 273 small cell lung is 33.3 µM; with HOP-18 NSCLC, 32.2 µM; in the assay on LXFL 529 NSCLC, 29.9 µM; in the assay with SNB-78 CNS it was 54.8 µM.

The record behind these values is PubChem BioAssay (NCI).
